According to PMC9503459, “Antifungal Activity, Structural Stability, and Immunomodulatory Effects on Human Immune Cells of Defensin from the Lentil Lens culinaris” (Membranes, 2022):
No end group written: not given here.

Test system: clinical isolate of C. glabrata (252/2)
Assay: Antifungal microdilution assay, C. glabrata
Type: cell-based, Candida glabrata
Conditions: 24 h; for inhibition of the growth: C. glabrata
Protocol: The clinical isolates of Candida albicans (v47a3), C. krusei (225/2) and C. glabrata (252/2) were collected from patients with human immunodeficiency virus (HIV) infection and provided by G.N. Gabrichevsky Research Institute for Epidemiology and Microbiology (Moscow, Russia). Strains stocks were kept at −70 ℃ in 10% nonfat milk with 10% glycerol.
Antifungal susceptibility tests were performed by the microdilution method using 96-well microplates. Yeast cells in stock were inoculated onto modified YPD (yeast extract 5 g/L, peptone 10 g/L, glucose 10 g/L) agar plates, and incubated for 24 h at 37 ℃. After replating, cells were cultured in modified YPD broth at 37 ℃ to optical density 1.0 at 540 nm. Further, yeast cells in modified YPD broth at concentration of 5 × 10^4 cells/mL were mixed with equal volumes of serial two-fold dilutions of the peptide in water which started at the highest peptide concentration of 200 µM. Final peptide concentrations in the wells were 100, 50, 25, 12.5, 6.25, 3.125, and 1.56 μM. Controls without defensin were also tested. Plates were incubated at 30 ℃ during 24 h. Yeast growth was estimated using inverted microscope as well as by measuring the optical density at 540 nm. Percentage of growth inhibition was defined as: growth inhibition (%) = ((Acontrol − Asample)/Acontrol) × 100%. All of the experiments were performed twice in triplicate. The t-test was performed to study the statistical difference (p-value) between the means of controls and samples with different peptide concentrations. The experiment with lentil Lens culinaris lipid transfer protein Lc-LTP2 was carried out for comparison.

In the case of “Lc-def: defensin from lentil Lens culinaris seeds (UniProt:B3F051), recombinant, overexpressed in Escherichia coli (KTCENLSDSFKGPCIPDGNCNKHCKEKEHLLSGRCRDDFRCWCTRNC; disulfide (positions not given here); ends not checked; also: disulfide bonds present, pairing not given here; UniProt B3F051 28-74, looked up)”, the IC50 (C. glabrata clinical isolate, microdilution, modified YPD, 30 °C, OD540, twice in triplicate, read-out: concentration causing 50% growth inhibition) is reported as 25 to 50 µM, the “inhibition of the growth” value (50 μM peptide) is reported as ~90% and the “inhibition of the growth” value (100 μM peptide) is reported as < 100%.
